Experimental data reported in patent US9452990B2, “Complement pathway modulators and uses thereof” (NOVARTIS AG, priority 2012, dated 2016).
Where a name gives a salt, the structure may show the parent alone. Read-outs that look alike come from different tables or passages of the source.

Biological target: human complement factor B (CVF-Bb complex) (Homo sapiens (Human), UniProt P00751)
Assay: Human Complement Factor B ELISA Assay
Format: biochemical
Description: Human Complement Factor B ELISA Assay
CVF-Bb complex prepared from purified cobra venom factor (1 μM), recombinant human complement factor B (expressed in drosophila cells and purified using standard methods) and human complement factor D (expressed in E. Coli, refolded and purified using standard methods). CVF-Bb complex at 3 nM concentration was incubated with test compound at various concentrations for 1 hour at room temperature in PBS pH 7.4 containing 10 mM MgCl2 and 0.05% (w/v) CHAPS. Human complement C3 substrate purified from plasma was added to a final concentration of 1 μM. After 1 hour incubation at room temperature, the enzyme reaction was stopped by addition of a cocktail of concentrated pan-protease inhibitors. The product of the reaction, C3a, was quantified by means of an enzyme-linked-immunosorbent assay. IC50 values were calculated from percentage of inhibition of CVF-Bb activity as a function of test compound concentration.

[1] = CVF-Bb complex 3 nM, 1 hour preincubation with compound at room temperature, human C3 substrate 1 μM, C3a quantified by ELISA, read-out: Factor B IC50

CCN[C@H](CC(=O)N1CCN(c2nc(N)c3cc(OC)c(OC)c(F)c3n2)CC1)c1ccc(C#N)cc1 [Example 90, (R)-4-(3-(4-(4-amino-8-fluoro-6,7-dimethoxyquinazolin-2-yl)piperazin-1-yl)-1-(ethylamino)-3-oxopropyl)benzonitrile]
IC50 [1]: 1 nM

COc1cc2c(N)nc(N3CCN(C(=O)CC4NCCc5cc(F)ccc54)CC3)nc2c(F)c1OC (stereo not shown) [Example 128, 1-[4-(4-Amino-8-fluoro-6,7-dimethoxy-quinazolin-2-yl)-piperazin-1-yl]-2-(6-fluoro-1,2,3,4-tetrahydro-isoquinolin-1-yl)-ethanone]
IC50 [1]: 120 nM

COc1cc2c(N)nc(N3CCN(C(=O)C[C@@H]4CCCN4)CC3)nc2c(F)c1OC [Example 110, 1-[4-(4-Amino-8-fluoro-6,7-dimethoxy-quinazolin-2-yl)-piperazin-1-yl]-2-(S)-pyrrolidin-2-yl-ethanone]
IC50 [1]: 140 nM

COc1cc2c(N)nc(N3CCN(C(=O)/C=C/C4CCC4)C[C@@H]3C)nc2c(F)c1OC [Example 6, (E)-1-[(S)-4-(4-Amino-8-fluoro-6,7-dimethoxy-quinazolin-2-yl)-3-methyl-piperazin-1-yl]-3-cyclobutyl-propenone]
IC50 [1]: 190 nM

COc1cc2c(N)nc(N3CCN(C(=O)C[C@@H](N)Cc4ccccc4)C[C@@H]3C)nc2c(F)c1OC [Example 62, (S)-3-Amino-1-[(S)-4-(4-amino-8-fluoro-6,7-dimethoxy-quinazolin-2-yl)-3-methyl-piperazin-1-yl]-4-phenyl-butan-1-one hydrochloride]
IC50: 2250 nM

COc1cc2c(N)nc(N3CCN(C(=O)C[C@@H](N)c4ccccc4F)C[C@@H]3C)nc2c(F)c1OC [Example 59, (R)-3-Amino-1-[(S)-4-(4-amino-8-fluoro-6,7-dimethoxy-quinazolin-2-yl)-3-methyl-piperazin-1-yl]-3-(2-fluoro-phenyl)-propan-1-one hydrochloride]
IC50: 160 nM

CN[C@H](CC(=O)N1CCN(c2nc(N)c3cc(OC)c(OC)c(F)c3n2)CC1)c1ccc(C#N)cc1 [Example 77, (R)-4-(3-(4-(4-amino-8-fluoro-6,7-dimethoxyquinazolin-2-yl)piperazin-1-yl)-1-(methylamino)-3-oxopropyl)benzonitrile]
IC50 [1]: 4 nM

COc1cc2c(N)nc(N3CCN(C(=O)/C=C/c4ccc(C#N)cc4)C[C@@H]3C)nc2c(F)c1OC [Example 7, 4-{(E)-3-[(S)-4-(4-Amino-8-fluoro-6,7-dimethoxy-quinazolin-2-yl)-3-methyl-piperazin-1-yl]-3-oxo-propenyl}-benzonitrile]
IC50 [1]: 20 nM

CCC[C@H]1CN(C(=O)C[C@@H]2CCCN2)CCN1c1nc(N)c2cc(OC)c(OC)c(F)c2n1 [Example 118, 1-[(S)-4-(4-Amino-8-fluoro-6,7-dimethoxy-quinazolin-2-yl)-3-propyl-piperazin-1-yl]-2-(S)-pyrrolidin-2-yl-ethanone]
IC50 [1]: 270 nM

COc1cc2c(N)nc(N3CCN(C(=O)C[C@@H](N)c4ccc(F)c(Cl)c4)CC3)nc2c(F)c1OC [Example 52, (R)-3-Amino-1-[4-(4-amino-8-fluoro-6,7-dimethoxy-quinazolin-2-yl)-piperazin-1-yl]-3-(3-chloro-4-fluoro-phenyl)-propan-1-one hydrochloride]
IC50: 110 nM

COc1cc2c(N)nc(N3CCN(C(=O)C[C@@H](N)c4ccco4)CC3)nc2c(F)c1OC [Example 34, (R)-3-Amino-1-[4-(4-amino-8-fluoro-6,7-dimethoxy-quinazolin-2-yl)-piperazin-1-yl]-3-furan-2-yl-propan-1-one hydrochloride]
IC50: 90 nM

COc1cc2c(N)nc(N3CCN(C(=O)C[C@@H](NC(C)C)c4ccc(C#N)cc4)CC3)nc2c(F)c1OC [Example 95, (R)-4-(3-(4-(4-amino-8-fluoro-6,7-dimethoxyquinazolin-2-yl)piperazin-1-yl)-1-(isopropylamino)-3-oxopropyl)benzonitrile]
IC50 [1]: 3 nM

CN[C@H](CC(=O)N1CCN(c2nc(N)c3cc(OC)c(OC)c(F)c3n2)CC1)c1ccccc1 [Example 72, (R)-1-[4-(4-Amino-8-fluoro-6,7-dimethoxy-quinazolin-2-yl)-piperazin-1-yl]-3-methylamino-3-phenyl-propan-1-one]
IC50 [1]: 230 nM

CC[C@H]1CN(C(=O)C[C@@H](N)c2ccc(C(F)(F)F)cc2)CCN1c1nc(N)c2cc(OC)c(OC)c(F)c2n1 [Example 66, (R)-3-Amino-1-[(S)-4-(4-amino-8-fluoro-6,7-dimethoxy-quinazolin-2-yl)-3-ethyl-piperazin-1-yl]-3-(4-trifluoromethyl-phenyl)-propan-1-one hydrochloride]
IC50: 90 nM

COc1cc2c(N)nc(N3CCN(C(=O)/C=C/c4ccc(C#N)cc4)CC3)nc2c(F)c1OC [Example 2, 4-{(E)-3-[4-(4-Amino-8-fluoro-6,7-dimethoxy-quinazolin-2-yl)-piperazin-1-yl]-3-oxo-propenyl}-benzonitrile]
IC50 [1]: 16 nM

CC[C@H]1CN(C(=O)C[C@@H]2CCCN2)CCN1c1nc(N)c2cc(OC)c(OC)c(F)c2n1 [Example 116, 1-[(S)-4-(4-Amino-8-fluoro-6,7-dimethoxy-quinazolin-2-yl)-3-ethyl-piperazin-1-yl]-2-(S)-pyrrolidin-2-yl-ethanone]
IC50 [1]: 540 nM

CC[C@H]1CN(C(=O)/C=C/c2ccc(C#N)cc2)CCN1c1nc(N)c2cc(OC)c(OC)c(F)c2n1 [Example 8, 4-{(E)-3-[(S)-4-(4-Amino-8-fluoro-6,7-dimethoxy-quinazolin-2-yl)-3-ethyl-piperazin-1-yl]-3-oxo-propenyl}-benzonitrile]
IC50 [1]: 11 nM

CCC[C@H]1CN(C(=O)C[C@@H](N)c2ccc(C#N)cc2)CCN1c1nc(N)c2cc(OC)c(OC)c(F)c2n1 [Example 67, 4-{(R)-1-Amino-3-[(S)-4-(4-amino-8-fluoro-6,7-dimethoxy-quinazolin-2-yl)-3-propyl-piperazin-1-yl]-3-oxo-propyl}-benzonitrile hydrochloride]
IC50: 10 nM

COc1cc2nc(N3CCN(C(=O)C[C@@H](N)c4ccc(F)cc4)CC3)nc(N)c2c(F)c1OC [Example 83, (R)-3-Amino-1-[4-(4-amino-5-fluoro-6,7-dimethoxy-quinazolin-2-yl)-piperazin-1-yl]-3-(4-fluoro-phenyl)-propan-1-one]
IC50 [1]: 30 nM

COc1cc2c(N)nc(N3CCN(C(=O)C[C@@H](N)CC(C)C)C[C@@H]3C)nc2c(F)c1OC [Example 56, (S)-3-Amino-1-[(S)-4-(4-amino-8-fluoro-6,7-dimethoxy-quinazolin-2-yl)-3-methyl-piperazin-1-yl]-5-methyl-hexan-1-one hydrochloride]
IC50: 240 nM

[2H]C([2H])([2H])N[C@H](CC(=O)N1CCN(c2nc(N)c3cc(OC)c(OC)c(F)c3n2)CC1)c1ccccc1 [Example 79, (R)-1-[4-(4-Amino-8-fluoro-6,7-dimethoxy-quinazolin-2-yl)-piperazin-1-yl]-3-d^3-methylamino-3-phenyl-propan-1-one hydrochloride]
IC50 [1]: 50 nM

COc1cc2c(N)nc(N3CCN(C(=O)C[C@@H](N)c4ccc(C)s4)CC3)nc2c(F)c1OC [Example 38, (R)-3-Amino-1-[4-(4-amino-8-fluoro-6,7-dimethoxy-quinazolin-2-yl)piperazin-1-yl]-3-(5-methyl-thiophen-2-yl)-propan-1-one]
IC50 [1]: 180 nM
